Read-outs that look alike come from different tables or passages of the source.
Tests used:
[1] = tested on: Coxsackievirus type A-21 (CAV-21); test: Anticoxsackieviral cell culture assay, CAV-21; format: cell-based; settings: 48 h, Strain CAV-21, H1-HeLa cells, two days, XTT, read-out: EC50
Experimental: (§1) Coxsackievirus types A-21 (CAV-21) and B3 (CVB-3) were purchased from American Type Culture Collection (ATCC, Rockville, Md.). Virus stocks were propagated and antiviral assays were performed in H1-HeLa cells (ATCC). Cells were grown in minimal essential medium with 10% fetal bovine serum (Life Technologies, Gaithersburg, Md.).
(§2) The ability of compounds to protect cells against either CAV-21 or CVB-3 infection was measured by the XTT dye reduction method. This method is described in Weislow et al., J. Natl. Cancer Inst. 1989, vol. 81, 577-586. H1-HeLa cells were infected with CAV-21 or CVB-3 at a multiplicity of infection (m.o.i.) of 0.025 or 0.075, respectively, or mock-infected with medium only. H1-HeLa cells were plated at 4×10^4 cells per well in a 96-well plate and incubated with appropriate concentrations of the test compound. One day (CVB-3) or two days (CAV-21) later, XTT/PMS was added to test plates and the amount of formazan produced was quantified spectrophotometrically at 450/650 nm. The EC50 was calculated as the concentration of compound that increased the formazan production in compound-treated, virus-infected cells to 50% of that produced by compound-free, uninfected cells. The 50% cytotoxic dose (CC50) was calculated as the concentration of compound that decreased formazan production in compound-treated, uninfected cells to 50% of that produced in compound-free, uninfected cells. The therapeutic index TI) was calculated by dividing the CC50 by the EC50.
(§3) The compounds were tested against control compounds WIN 54954 (obtained from Sterling-Winthrop Pharmaceuticals), Pirodavir (obtained from Janssen Pharmaceuticals), and Pleconaril (prepared according to Diana et al., J. Med. Chem. 1995, 38, 1355).

[2] = tested on: Echovirus type 11 (EV 11); test: Anti-echoviral cell culture assay, EV 11; format: cell-based; settings: Enterovirus B, MRC5, 96 h; Strain EV-11; MRC-5 cells; four days; XTT; read-out: EC50
Experimental: (§4) Echovirus type 11 (EV 11) and enterovirus type 70 (EV 70) were purchased from ATCC (Rockville, Md.). Virus stocks were propagated and antiviral assays were performed in MRC-5 cells (ATCC). Cells were grown in minimal essential medium with 10% fetal bovine serum (Life Technologies, Gaithersburg, Md.).
(§5) The ability of compounds to protect cells against either EV 11 or EV 70 infection was measured by the XTT dye reduction method (Weislow et al., J. Natl. Cancer Inst. 1989, vol. 81, 577-586). MRC-5 cells were infected with EV 11 or EV 70 at an m.o.i. of 0.003 or 0.004, respectively, or mock-infected with medium only. Infected or uninfected cells were added at 1×10^4 cells per well and incubated with appropriate concentrations of compound. Four days later, XTT/PMS was added to test plates, and the amount of formazan produced was quantified spectrophotometrically at 450/650 nm. The EC50 was calculated as the concentration of compound that increased the formazan production in compound-treated, virus-infected cells to 50% of that produced by compound-free, uninfected cells. The 50% cytotoxic dose (CC50) was calculated as the concentration of compound that decreased formazan production in compound-treated, uninfected cells to 50% of that produced in compound-free, uninfected cells. The therapeutic index (TI) was calculated by dividing the CC50 by the EC50.
The compounds were tested against control compounds Pirodavir (obtained from Janssen Pharmaceuticals) and Pleconaril (prepared according to Diana et al., J. Med. Chem. 1995, vol. 38, 1355). Antiviral data obtained for the test compounds against strain EV 11 and EV 70 are shown below in Table 5.

HRV-14 = test: Antirhinoviral H1-HeLa cell culture assay, HRV-14; format: cell-based, human rhinovirus; settings: Rhinovirus B, HRV14, H1-HeLa, HRV serotype-14, H1-HeLa cells
Summary of the method: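 Antiviral EC50 comes from formazan production by infected, compound-treated H1-HeLa cells reaching 50% of the mock-infected, untreated level. Cells grown in MEM/10% FBS were infected at m.o.i. 0.13 and incubated with compound for two days before XTT/PMS addition.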

[3] = tested on: Coxsackievirus type B3 (CVB-3); test: Anticoxsackieviral cell culture assay, CVB-3; format: cell-based; settings: 24 h, Strain CVB-3, H1-HeLa cells, one day, XTT, read-out: EC50
Experimental: as §1, §2, §3

[4] = tested on: enterovirus type 70 (EV 70); test: Anti-enteroviral cell culture assay, EV 70; format: cell-based; settings: Enterovirus D, MRC5, 96 h; Strain EV-70; MRC-5 cells; four days; XTT
Experimental: as §4
as §5, with “EC50. […]” for “EC50.”

[5] = biological target: T1, rhinovirus 3C protease, serotype 16 (Human rhinovirus 16, UniProt Q82122); test: Inhibition of rhinovirus 3C protease (FRET assay), serotype 16; format: biochemical; settings: Rhinovirus Serotype (16) 3C protease; read-out: kobs/I
T1 construct: Recombinant rhinovirus 3C proteases; made in house
T1 sequence (Q82122 1511-1693): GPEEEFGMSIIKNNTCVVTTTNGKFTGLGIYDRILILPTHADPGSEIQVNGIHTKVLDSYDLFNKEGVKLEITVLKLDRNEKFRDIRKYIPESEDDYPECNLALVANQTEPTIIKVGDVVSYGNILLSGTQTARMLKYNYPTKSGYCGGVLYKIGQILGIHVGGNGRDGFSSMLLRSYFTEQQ
Experimental: Stock solutions (50 mM, in DMSO) of various compounds were prepared; dilutions were in the same solvent. Recombinant rhinovirus 3C proteases (see Birch et al., “Purification of recombinant human rhinovirus 14 3C protease expressed in Escherichia coli,” Protein Expr. Pur. 1995, 6(5), 609-618) from serotypes 14, 16, and 2 were prepared by the following standard chromatographic procedures: (1) ion exchange using Q Sepharose Fast Flow from Pharmacia; (2) affinity chromatography using Affi-Gel Blue from Biorad; and (3) sizing using Sephadex G-100 from Pharmacia. Each assay sample contained 2% DMSO, 50 mM tris pH 7.6, 1 mM EDTA, a test compound at the indicated concentration, approximately 1 μM substrate, and 50-100 nM protease. The kobs/I values were obtained from reactions initiated by addition of enzyme rather than substrate. RVP activity was measured in the fluorescence resonance energy transfer assay. The substrate was (N-terminal) DABCYL-(Gly-Arg-Ala-Val-Phe-Gln-Gly-Pro-Val-Gly)-EDANS. In the uncleaved peptide, the EDANS fluorescence was quenched by the proximal DABCYL moiety. When the peptide was cleaved, the quenching was relieved, and activity was measured as an increase in fluorescence signal. […] The data in the column designated kobs/[I] were measured from progress curves in enzyme start experiments.

[6] = biological target: T2, rhinovirus 3C protease from HRV serotype-14 (Human rhinovirus 14, UniProt P03303); test: Inhibition of rhinovirus 3C protease (FRET assay), serotype 14; format: biochemical; settings: HRV serotype-14 3C protease; progress curves in enzyme start experiments; read-out: Protease Inhibition kobs/[I]
T2 construct: Recombinant rhinovirus 3C proteases; made in house
T2 sequence (P03303 1538-1719): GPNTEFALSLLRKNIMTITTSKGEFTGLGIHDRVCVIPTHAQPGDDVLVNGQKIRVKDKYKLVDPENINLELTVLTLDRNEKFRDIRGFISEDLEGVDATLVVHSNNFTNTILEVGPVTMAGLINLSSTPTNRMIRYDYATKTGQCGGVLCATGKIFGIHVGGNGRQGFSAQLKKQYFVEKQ
Summary of the method: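 Recombinant 3C protease (50-100 nM) with ~1 μM DABCYL-GRAVFQGPVG-EDANS FRET substrate in 50 mM Tris pH 7.6, 1 mM EDTA, 2% DMSO. Cleavage read as increase in EDANS fluorescence. kobs/[I] derived from progress curves of enzyme-initiated reactions.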

[7] = biological target: T3, rhinovirus 3C protease, serotype 2 (Human rhinovirus 2, UniProt P04936); test: Inhibition of rhinovirus 3C protease (FRET assay), serotype 2; format: biochemical; settings: Rhinovirus Serotype (2) 3C protease; read-out: kobs/I
T3 construct: Recombinant rhinovirus 3C proteases; made in house
T3 sequence (P04936 1508-1690): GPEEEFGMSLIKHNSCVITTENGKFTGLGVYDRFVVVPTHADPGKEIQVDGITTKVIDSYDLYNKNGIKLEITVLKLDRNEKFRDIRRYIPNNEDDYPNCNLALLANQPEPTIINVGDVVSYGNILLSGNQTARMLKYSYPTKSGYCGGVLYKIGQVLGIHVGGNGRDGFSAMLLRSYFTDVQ
Experimental: Stock solutions (50 mM, in DMSO) of various compounds were prepared; dilutions were in the same solvent. Recombinant rhinovirus 3C proteases (see Birch et al., “Purification of recombinant human rhinovirus 14 3C protease expressed in Escherichia coli,” Protein Expr. Pur. 1995, 6(5), 609-618) from serotypes 14, 16, and 2 were prepared by the following standard chromatographic procedures: (1) ion exchange using Q Sepharose Fast Flow from Pharmacia; (2) affinity chromatography using Affi-Gel Blue from Biorad; and (3) sizing using Sephadex G-100 from Pharmacia. Each assay sample contained 2% DMSO, 50 mM tris pH 7.6, 1 mM EDTA, a test compound at the indicated concentration, approximately 1 μM substrate, and 50-100 nM protease. The kobs/I values were obtained from reactions initiated by addition of enzyme rather than substrate. RVP activity was measured in the fluorescence resonance energy transfer assay. The substrate was (N-terminal) DABCYL-(Gly-Arg-Ala-Val-Phe-Gln-Gly-Pro-Val-Gly)-EDANS. In the uncleaved peptide, the EDANS fluorescence was quenched by the proximal DABCYL moiety. When the peptide was cleaved, the quenching was relieved, and activity was measured as an increase in fluorescence signal. In Table 1, all data are for rhinovirus 3C protease from HRV serotype-14 (produced from the infectious cDNA clone constructed by Dr. Robert Rueckert, Institute for Molecular Virology, University of Wisconsin, Madison, Wis.). […] The data in the column designated kobs/[I] were measured from progress curves in enzyme start experiments.

HRV (16) = test: Antirhinoviral H1-HeLa cell culture assay, HRV serotype 16; format: cell-based; settings: Human rhinovirus sp., H1-HeLa cells, XTT
Experimental: (§6) In this cell protection assay, the ability of compounds to protect cells against HRV infection was measured by the XTT dye reduction method, which is described in Weislow et al., J. Natl. Cancer Inst. 1989, vol. 81, 577-586.
(§7) H1-HeLa cells were infected with HRV-14 at a multiplicity of infection (m.o.i.) of 0.13 (virus particles/cell) or mock-infected with medium only. Infected or mock-infected cells were resuspended at 8×10^5 cells per mL, and incubated with appropriate concentrations of the compounds to be tested. Two days later, XTT/PMS was added to test plates and the amount of formazan produced was quantified spectrophotometrically at 450/650 nm. The EC50 value was calculated as the concentration of compound that increased the percentage of formazan production in compound-treated, virus-infected cells to 50% of that produced by compound-free, mock-infected cells. The 50% cytotoxic dose (CC50) was calculated as the concentration of compound that decreased the percentage of formazan produced in compound-treated, mock-infected cells to 50% of that produced by compound-free, mock-infected cells. The therapeutic index (TI) was calculated by dividing the CC50 value by the EC50 value.
(§8) All strains of human rhinovirus (HRV) for use in this assay were purchased from American Type Culture Collection (ATCC), except for HRV serotype-14 (produced from the infectious cDNA clone constructed by Dr. Robert Rueckert, Institute for Molecular Virology, University of Wisconsin, Madison, Wis.). HRV stocks were propagated and viral assays were performed in H1-HeLa cells (ATCC). Cells were grown in minimal essential medium with 10% fetal bovine serum, available from Life Technologies (Gaithersburg, Md.).
The compounds were tested against control compounds WIN 51711, WIN 52084, and WIN 54954 (obtained from Sterling-Winthrop Pharmaceuticals), Pirodavir (obtained from Janssen Pharmaceuticals), and Pleconaril (prepared according to the method described in Diana et al., J. Med. Chem 1995, vol. 38, 1355). […]

HRV (89) = test: Antirhinoviral H1-HeLa cell culture assay, HRV serotype 89; format: cell-based, human rhinovirus; settings: Human rhinovirus sp., H1-HeLa cells, XTT
Experimental: as §6, §7, §8
(§9) The compounds were tested against control compounds WIN 51711, WIN 52084, and WIN 54954 (obtained from Sterling-Winthrop Pharmaceuticals), Pirodavir (obtained from Janssen Pharmaceuticals), and Pleconaril (prepared according to the method described in Diana et al., J. Med. Chem 1995, vol. 38, 1355). Antiviral data obtained for the test compounds are shown in Tables 1 and 3, where all data are for HRV serotype-14 unless otherwise noted in parentheses.

HRV (10) = test: Antirhinoviral H1-HeLa cell culture assay, HRV serotype 10; format: cell-based, human rhinovirus; settings: Human rhinovirus sp., H1-HeLa, H1-HeLa cells, XTT
Experimental: as §6, §7, §8, §9

[8] = biological target: T4, rhinovirus 3C protease, serotype 89 (Human rhinovirus A serotype 89, UniProt P07210); test: Inhibition of rhinovirus 3C protease (FRET assay), serotype 89; format: biochemical; settings: Rhinovirus Serotype (89) 3C protease; read-out: kobs/I
T4 construct: Recombinant rhinovirus 3C proteases
T4 sequence (P07210 1522-1704): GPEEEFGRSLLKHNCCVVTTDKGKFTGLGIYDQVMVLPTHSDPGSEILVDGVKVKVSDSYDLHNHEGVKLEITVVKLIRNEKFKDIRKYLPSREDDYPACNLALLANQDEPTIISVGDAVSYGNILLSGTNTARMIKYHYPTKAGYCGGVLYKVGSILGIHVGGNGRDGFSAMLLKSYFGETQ

H1-HeLa cells = test: Cytotoxicity in uninfected H1-HeLa cells (anticoxsackieviral assay, XTT); format: cell-based; settings: 50% cytotoxic dose, Table 4
Experimental: as §2

EC50 [1] [nM] | EC50 (HRV-14; Table 3, XTT, read-out: EC50) [nM] | EC50 [3] [nM] | kinact/KI [5] [M⁻¹ s⁻¹] | kinact/KI [6] [M⁻¹ s⁻¹] | EC50 (HRV-14; Table 1, XTT dye reduction, read-out: Cell Protection EC50) [nM] | kinact/KI [7] [M⁻¹ s⁻¹] | EC50 (HRV (16)) [nM] | EC50 (HRV (89)) [nM] | EC50 (HRV (10)) [nM] | kinact/KI [8] [M⁻¹ s⁻¹] | Compound | EC50 [2] [nM] | EC50 [4] [nM] | CC50 (H1-HeLa cells) [nM]
> 100000 | 30 | > 100000 |  |  |  |  |  |  |  |  | CCOC(=O)c1ccc(OCCC2CCN(c3ccc(C)nn3)CC2)cc1 [Pirodavir, reference compound] | 3700 | 60 | 
 | 610 |  | 6500 | 25000 | 610 | 2000 | 2300 | 6300 | 600 | 3400 | CCOC(=O)/C=C/[C@H](CCC(N)=O)NC(=O)[C@H](Cc1ccccc1)NC(=O)[C@H](CC(C)C)NC(=O)OCc1ccccc1 [Comparison Compound #2, Ethyl-3-(Cbz-L-Leu-L-Phe-L-Gln)-E-Propenoate, reference compound] |  |  | 
 |  |  |  |  |  |  |  |  |  |  | Cc1cc(CCCCCOc2c(Cl)cc(C3=NCCO3)cc2Cl)on1 [WIN 54954] |  |  | > 100000

— US20060046966A1, “Antipicornaviral compounds and compositions, their pharmaceutical uses, and materials for their synthesis” (Agouron Pharmaceuticals, Inc., priority 1998, published 2006)
